Results: patent US10376476B2, “Panicein compounds, compositions and uses thereof” (CENTRE NATIONAL DE LA RECHERCHE SCIENTIFIQUE, priority 2014, dated 2019)

Biological target: T1, human Patched (hPtc) expressed in S. cerevisiae (Homo sapiens, UniProt Q13635)
T1 construct: MAP; expressed in transfected cells; host or cells: Saccharomyces cerevisiae K699
T1 sequence (Q13635 1-1447): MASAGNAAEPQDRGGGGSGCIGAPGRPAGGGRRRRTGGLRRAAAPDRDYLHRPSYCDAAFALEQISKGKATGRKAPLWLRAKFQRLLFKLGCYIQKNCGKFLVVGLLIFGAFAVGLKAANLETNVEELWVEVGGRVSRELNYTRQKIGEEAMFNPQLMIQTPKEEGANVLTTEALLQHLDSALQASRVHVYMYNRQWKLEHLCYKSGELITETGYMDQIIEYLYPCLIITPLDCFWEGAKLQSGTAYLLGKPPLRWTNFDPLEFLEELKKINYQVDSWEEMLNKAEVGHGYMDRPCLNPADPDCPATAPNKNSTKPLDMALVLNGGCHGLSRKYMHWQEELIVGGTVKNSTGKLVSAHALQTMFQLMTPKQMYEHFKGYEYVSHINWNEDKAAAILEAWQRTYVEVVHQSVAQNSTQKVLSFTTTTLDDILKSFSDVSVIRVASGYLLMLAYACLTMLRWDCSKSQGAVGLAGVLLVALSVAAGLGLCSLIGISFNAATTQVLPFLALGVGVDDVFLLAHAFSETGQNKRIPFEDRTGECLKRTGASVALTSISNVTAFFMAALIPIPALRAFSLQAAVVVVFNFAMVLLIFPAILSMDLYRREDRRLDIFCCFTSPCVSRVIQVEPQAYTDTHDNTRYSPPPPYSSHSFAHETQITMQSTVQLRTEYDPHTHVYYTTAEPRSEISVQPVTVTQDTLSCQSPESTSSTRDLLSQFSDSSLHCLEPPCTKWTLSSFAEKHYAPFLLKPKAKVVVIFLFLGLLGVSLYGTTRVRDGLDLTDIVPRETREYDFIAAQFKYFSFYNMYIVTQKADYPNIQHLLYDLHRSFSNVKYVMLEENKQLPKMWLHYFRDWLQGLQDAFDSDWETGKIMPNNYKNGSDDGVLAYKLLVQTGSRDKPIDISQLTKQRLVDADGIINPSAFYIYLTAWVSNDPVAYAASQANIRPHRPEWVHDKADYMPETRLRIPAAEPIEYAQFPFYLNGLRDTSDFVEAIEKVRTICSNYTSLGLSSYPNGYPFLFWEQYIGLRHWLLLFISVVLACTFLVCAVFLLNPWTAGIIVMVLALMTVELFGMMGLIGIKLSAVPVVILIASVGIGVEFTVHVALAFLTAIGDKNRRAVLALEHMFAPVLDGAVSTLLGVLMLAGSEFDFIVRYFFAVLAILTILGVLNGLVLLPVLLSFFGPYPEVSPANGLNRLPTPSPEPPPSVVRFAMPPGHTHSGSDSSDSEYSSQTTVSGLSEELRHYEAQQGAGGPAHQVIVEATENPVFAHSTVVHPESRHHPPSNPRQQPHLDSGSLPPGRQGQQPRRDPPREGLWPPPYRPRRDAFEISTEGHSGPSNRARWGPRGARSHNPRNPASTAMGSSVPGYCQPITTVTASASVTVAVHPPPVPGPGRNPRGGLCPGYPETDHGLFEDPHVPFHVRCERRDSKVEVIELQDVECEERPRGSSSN
Assay: Screening test 1: resistance of Patched-expressing yeast to doxorubicin (yeast growth, absorbance 600 nm)
Format: cell-based
Conditions: 10 μg/mL fraction or purified compound, 10 μM doxorubicin
Description: A. Haliclona mucosa sponge. B. Haliclona mucosa methanolic fraction contains inhibitors of the resistance of Patched-expressing yeasts to doxorubicin. Yeast S. cerevisiae expressing hPtc were grown in 96 well plates in the presence of 10 μg/mL of the methanolic fraction of Haliclona mucosa crude extract dissolved in DMSO and in presence or not of 10 μM of doxorubicin (dxr). The growth of yeasts was measured by absorbance at 600 nm and the results shown are the mean of three independent experiments. C. Purification profile of Haliclona mucosa methanolic fraction. A preparative phenyl-hexyl HPLC column was used with a gradient starting at (47 H20: 53 ACN: 0.1 TFA) to (0 H20: 100 ACN: 0.1 TFA), flow rate: 10.0 mL/min, injection volume: 75 μl at 100 mg/mL. […] Purified compounds dissolved in DMSO were added (at 10 μg/mL) to the growth medium containing or not 10 μM dxr. The growth of yeasts was measured by absorbance at 600 nm.
S. cerevisiae expressing human Patched were grown in 10 mL of minimal medium (supplemented with 2% of glucose and amino acids cocktail without leucine) at 30° C. When the exponential phase was obtained (OD600=5-7), yeasts were precultured in the same medium to OD600=1-2. Yeasts were then diluted in rich medium containing 2% of glucose in 96-well plates. Methanolic or purified fractions (at 10 μg/mL final concentration) were added in all wells, and doxorubicin (10 μM final concentration) was added in half of the wells. Plates were incubated at 18° C. on a shaker at 1250 rpm (microtitre plate shaker SSL5 Stuart) and absorbance at 600 nm was recorded for about 72 hours.
Inventors cultured yeast S. cerevisiae expressing human Patched in their plasma membrane as previously described (Bidet et al., 2011, 2012) in 96 well plates. Methanolic fraction of Haliclona mucosa crude extracts was prepared, dissolved in DMSO at 10mg/mL and added at a final concentration of 10 μg/mL to the yeast culture medium supplemented or not with doxorubicin (dxr). As previously reported (Bidet et al., 2012), human Patched confers a resistance to growth inhibition by dxr, an […] used to treat a wide range of cancers (FIG. 2B).

| SMILES | inhibition of the resistance (growth) of hPtc-expressing yeast in presence of dxr |
| --- | --- |
| C/C(=C\Cc1cc(O)ccc1O)CCc1c(C)cc(O)c(C=O)c1C [P3, Panicein B3] | strongly inhibit |
| Cc1cc(O)c(C=O)c(C)c1CCC1(C)C=Cc2cc(O)ccc2O1 (stereo not shown) [P4, Panicein B2] | lighter |
| COc1cc(C)c(CC/C(C)=C/Cc2cc(O)ccc2O)c(C)c1C [P5, Panicein A hydroquinone] | strongly inhibit |
| C/C(=C\Cc1cc(O)ccc1O)CCc1c(C)c(O)c(O)c(C=O)c1C [P2, Panicein C] | strongly inhibit |
